According to patent publication US11725011B2, “Bicyclic urea kinase inhibitors and uses thereof” (The Broad Institute, Inc., priority 2016, dated 2023):

What was measured:
ERK8 = ERK8 (Homo sapiens (Human), UniProt Q8TD08); test: KINOMEscan; assay type: binding; details: 1 uM
NEK6 = NEK6 (Homo sapiens (Human), UniProt Q9HC98); test: KINOMEscan; assay type: binding; details: 1 uM
TESK1 = TESK1 (Homo sapiens (Human), UniProt Q15569); test: KINOMEscan; assay type: binding; details: 1 uM
MLK3 = MLK3 (Homo sapiens (Human), UniProt Q16584); test: KINOMEscan; assay type: binding; details: 1 uM
CDK5 = CDK5 (Homo sapiens (Human), UniProt Q00535); test: KINOMEscan; assay type: binding; details: 1 uM
ASK2 = ASK2 (Homo sapiens (Human), UniProt O95382); test: KINOMEscan; assay type: binding; details: 1 uM
SNRK = SNRK (Homo sapiens (Human), UniProt Q9NRH2); test: KINOMEscan; assay type: binding; details: 1 uM
[1] = target: RPS6KA5 (Kin.Dom.1-N-terminal) (Homo sapiens (Human), UniProt O75582); test: KINOMEscan; assay type: binding; details: 1 uM
[2] = target: RSK4 (Kin.Dom.2-C-terminal) (Homo sapiens (Human), UniProt Q9UK32); test: KINOMEscan; assay type: binding; details: 1 uM
NEK9 = NEK9 (Homo sapiens (Human), UniProt Q8TD19); test: KINOMEscan; assay type: binding; details: 1 uM
SIK2 = SIK2 (Homo sapiens (Human), UniProt Q9H0K1); test: Percent activity against SIK2 at 1 μM; assay type: biochemical
LTK = LTK (Homo sapiens (Human), UniProt P29376); test: KINOMEscan; assay type: binding; details: 1 uM
LTK, sequence (P29376 17-864): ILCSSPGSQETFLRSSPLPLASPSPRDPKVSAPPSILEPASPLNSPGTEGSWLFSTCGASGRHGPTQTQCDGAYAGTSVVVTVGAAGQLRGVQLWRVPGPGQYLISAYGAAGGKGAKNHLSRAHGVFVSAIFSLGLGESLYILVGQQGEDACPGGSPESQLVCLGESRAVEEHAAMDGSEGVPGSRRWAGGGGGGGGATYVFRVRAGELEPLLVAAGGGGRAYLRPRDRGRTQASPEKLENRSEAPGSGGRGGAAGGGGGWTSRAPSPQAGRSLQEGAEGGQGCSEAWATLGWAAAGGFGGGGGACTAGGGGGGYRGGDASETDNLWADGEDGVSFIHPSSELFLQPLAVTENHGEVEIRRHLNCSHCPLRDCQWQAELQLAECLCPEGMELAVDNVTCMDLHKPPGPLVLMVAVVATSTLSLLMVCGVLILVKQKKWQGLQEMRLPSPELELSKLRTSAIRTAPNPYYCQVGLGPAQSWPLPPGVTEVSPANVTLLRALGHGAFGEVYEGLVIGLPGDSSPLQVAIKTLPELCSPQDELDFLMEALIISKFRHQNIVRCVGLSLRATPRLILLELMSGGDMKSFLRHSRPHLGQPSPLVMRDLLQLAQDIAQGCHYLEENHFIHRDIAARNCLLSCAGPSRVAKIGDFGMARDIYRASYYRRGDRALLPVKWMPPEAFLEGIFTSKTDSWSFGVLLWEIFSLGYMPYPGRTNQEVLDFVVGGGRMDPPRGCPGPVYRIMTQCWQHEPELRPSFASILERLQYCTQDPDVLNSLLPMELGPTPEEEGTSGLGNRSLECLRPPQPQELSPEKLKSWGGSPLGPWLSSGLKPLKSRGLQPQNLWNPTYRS

SIK2, sequence (Q9H0K1 whole entry): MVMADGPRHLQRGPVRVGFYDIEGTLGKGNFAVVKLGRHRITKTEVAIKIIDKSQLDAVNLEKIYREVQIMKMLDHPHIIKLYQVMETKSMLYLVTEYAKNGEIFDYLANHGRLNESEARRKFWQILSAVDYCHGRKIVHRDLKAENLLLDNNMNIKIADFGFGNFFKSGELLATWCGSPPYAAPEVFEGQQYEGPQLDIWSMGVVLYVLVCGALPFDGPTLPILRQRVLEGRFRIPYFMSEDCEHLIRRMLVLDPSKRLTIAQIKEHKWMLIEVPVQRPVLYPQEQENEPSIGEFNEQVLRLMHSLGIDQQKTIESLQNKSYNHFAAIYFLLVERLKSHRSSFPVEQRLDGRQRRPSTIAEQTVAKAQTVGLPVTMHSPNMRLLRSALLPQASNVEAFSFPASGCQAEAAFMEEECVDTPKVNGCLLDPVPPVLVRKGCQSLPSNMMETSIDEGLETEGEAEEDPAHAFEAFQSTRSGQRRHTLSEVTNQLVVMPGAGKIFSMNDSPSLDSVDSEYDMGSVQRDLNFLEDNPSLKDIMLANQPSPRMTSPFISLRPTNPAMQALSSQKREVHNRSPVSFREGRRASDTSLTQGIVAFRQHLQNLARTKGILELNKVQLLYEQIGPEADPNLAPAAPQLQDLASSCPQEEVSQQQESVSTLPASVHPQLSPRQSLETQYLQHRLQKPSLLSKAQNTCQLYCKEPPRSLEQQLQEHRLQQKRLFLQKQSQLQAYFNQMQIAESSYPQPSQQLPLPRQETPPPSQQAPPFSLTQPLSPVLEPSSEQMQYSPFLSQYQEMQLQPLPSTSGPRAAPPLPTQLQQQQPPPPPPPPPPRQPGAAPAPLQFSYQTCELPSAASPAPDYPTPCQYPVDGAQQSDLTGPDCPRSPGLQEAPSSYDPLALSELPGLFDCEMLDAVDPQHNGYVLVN
NEK9, sequence (Q8TD19 whole entry): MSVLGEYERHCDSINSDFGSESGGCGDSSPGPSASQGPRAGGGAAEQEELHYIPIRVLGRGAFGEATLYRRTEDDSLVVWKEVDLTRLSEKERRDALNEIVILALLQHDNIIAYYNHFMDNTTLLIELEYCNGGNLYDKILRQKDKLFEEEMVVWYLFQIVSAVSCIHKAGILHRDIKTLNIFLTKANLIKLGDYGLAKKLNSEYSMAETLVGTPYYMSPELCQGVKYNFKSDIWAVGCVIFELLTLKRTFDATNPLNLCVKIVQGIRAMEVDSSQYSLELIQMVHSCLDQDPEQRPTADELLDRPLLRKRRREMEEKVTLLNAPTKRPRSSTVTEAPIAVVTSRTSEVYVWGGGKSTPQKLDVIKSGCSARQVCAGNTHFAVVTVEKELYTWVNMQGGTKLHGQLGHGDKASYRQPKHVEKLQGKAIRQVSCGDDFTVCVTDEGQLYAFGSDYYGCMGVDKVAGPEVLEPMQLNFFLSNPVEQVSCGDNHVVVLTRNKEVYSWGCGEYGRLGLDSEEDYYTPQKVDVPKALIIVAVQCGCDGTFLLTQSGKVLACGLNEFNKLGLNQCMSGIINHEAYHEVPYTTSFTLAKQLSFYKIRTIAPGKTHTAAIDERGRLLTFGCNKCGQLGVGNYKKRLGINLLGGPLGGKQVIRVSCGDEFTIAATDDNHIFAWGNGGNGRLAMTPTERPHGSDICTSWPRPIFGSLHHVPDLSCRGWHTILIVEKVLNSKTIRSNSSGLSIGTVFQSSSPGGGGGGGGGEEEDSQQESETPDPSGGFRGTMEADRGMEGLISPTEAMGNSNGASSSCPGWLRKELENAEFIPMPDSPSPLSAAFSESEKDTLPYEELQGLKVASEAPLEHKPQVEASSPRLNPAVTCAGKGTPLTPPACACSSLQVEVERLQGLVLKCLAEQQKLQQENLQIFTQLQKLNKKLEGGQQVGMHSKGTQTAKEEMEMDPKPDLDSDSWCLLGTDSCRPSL
TESK1, sequence (Q15569 whole entry): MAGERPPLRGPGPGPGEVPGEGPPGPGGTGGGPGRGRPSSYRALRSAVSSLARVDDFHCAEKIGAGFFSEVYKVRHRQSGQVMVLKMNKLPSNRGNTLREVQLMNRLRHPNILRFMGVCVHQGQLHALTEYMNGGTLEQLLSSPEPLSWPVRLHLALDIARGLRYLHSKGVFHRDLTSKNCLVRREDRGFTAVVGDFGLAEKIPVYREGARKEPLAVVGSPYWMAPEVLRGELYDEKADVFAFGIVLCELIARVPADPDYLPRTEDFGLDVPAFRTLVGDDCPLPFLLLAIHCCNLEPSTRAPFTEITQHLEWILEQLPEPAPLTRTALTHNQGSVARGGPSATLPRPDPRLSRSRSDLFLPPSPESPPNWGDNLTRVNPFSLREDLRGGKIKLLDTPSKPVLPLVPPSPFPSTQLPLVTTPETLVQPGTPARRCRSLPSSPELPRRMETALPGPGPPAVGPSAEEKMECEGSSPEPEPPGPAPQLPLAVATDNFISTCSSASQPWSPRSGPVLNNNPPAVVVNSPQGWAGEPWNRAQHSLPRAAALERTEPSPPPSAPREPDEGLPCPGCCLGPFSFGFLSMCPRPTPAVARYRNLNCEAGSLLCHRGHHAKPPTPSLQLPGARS
ERK8, sequence (Q8TD08 whole entry): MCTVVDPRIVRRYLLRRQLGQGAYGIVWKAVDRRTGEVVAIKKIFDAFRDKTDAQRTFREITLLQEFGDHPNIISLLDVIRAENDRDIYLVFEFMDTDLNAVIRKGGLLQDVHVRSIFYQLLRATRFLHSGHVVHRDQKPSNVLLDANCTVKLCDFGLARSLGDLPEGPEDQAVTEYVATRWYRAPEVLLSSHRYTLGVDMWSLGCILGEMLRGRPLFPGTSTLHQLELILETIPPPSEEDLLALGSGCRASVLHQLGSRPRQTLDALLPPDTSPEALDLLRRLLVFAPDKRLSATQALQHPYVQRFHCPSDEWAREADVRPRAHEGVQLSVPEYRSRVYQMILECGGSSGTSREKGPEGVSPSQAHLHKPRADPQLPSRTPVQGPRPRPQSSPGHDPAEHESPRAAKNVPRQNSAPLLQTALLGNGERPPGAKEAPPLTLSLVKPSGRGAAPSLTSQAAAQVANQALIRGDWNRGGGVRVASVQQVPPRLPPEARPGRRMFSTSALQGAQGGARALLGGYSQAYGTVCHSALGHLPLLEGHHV
RPS6KA5 (Kin.Dom.1-N-terminal), sequence (O75582 49-318): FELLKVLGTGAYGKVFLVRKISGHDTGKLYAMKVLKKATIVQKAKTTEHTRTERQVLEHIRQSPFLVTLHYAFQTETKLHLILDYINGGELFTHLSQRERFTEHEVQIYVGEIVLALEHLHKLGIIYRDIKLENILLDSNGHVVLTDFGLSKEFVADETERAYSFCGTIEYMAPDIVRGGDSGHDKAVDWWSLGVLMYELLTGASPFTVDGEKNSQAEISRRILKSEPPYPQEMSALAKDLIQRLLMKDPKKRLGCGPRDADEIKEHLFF
RSK4 (Kin.Dom.2-C-terminal), sequence (Q9UK32 426-683): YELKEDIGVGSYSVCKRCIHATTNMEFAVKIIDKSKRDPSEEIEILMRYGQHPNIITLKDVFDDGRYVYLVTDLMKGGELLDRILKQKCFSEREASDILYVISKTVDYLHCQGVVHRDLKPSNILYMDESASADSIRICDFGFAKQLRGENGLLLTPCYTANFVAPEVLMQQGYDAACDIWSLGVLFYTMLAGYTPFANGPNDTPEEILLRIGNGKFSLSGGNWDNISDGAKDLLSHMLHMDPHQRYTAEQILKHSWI
NEK6, sequence (Q9HC98 whole entry): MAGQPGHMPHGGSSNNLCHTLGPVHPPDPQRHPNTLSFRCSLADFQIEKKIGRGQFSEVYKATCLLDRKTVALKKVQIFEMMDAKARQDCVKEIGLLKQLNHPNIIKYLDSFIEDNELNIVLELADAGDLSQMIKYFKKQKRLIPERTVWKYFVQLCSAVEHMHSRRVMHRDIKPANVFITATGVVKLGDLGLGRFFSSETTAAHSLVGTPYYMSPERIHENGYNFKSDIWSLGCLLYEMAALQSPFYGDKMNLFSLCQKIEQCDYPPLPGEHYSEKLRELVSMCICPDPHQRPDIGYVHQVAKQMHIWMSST

## COc1ccc(N2C(=O)N(c3c(C)cccc3C)Cc3cnc(Nc4ccc(N5CCN(C)CC5)cc4)nc32)c(OC)c1 [HG-11-136-01]
ERK8
  KINOMEscan ERK8: 88
NEK6
  KINOMEscan NEK6: 100
TESK1
  KINOMEscan TESK1: 0
MLK3
  KINOMEscan MLK3: 28
CDK5
  KINOMEscan CDK5: 100
ASK2
  KINOMEscan ASK2: 46
SNRK
  KINOMEscan SNRK: 91
[1]
  KINOMEscan RPS6KA5 (Kin.Dom.1-N-terminal): 100
[2]
  KINOMEscan RSK4 (Kin.Dom.2-C-terminal): 4
NEK9
  KINOMEscan NEK9: 81
SIK2; 1 μM
  Enzyme activity at 1 μM (%) SIK2: 2.8%
SIK2; compound at 1 μM, approximate Km for ATP
  SIK2 % ACTIVITY: 2.8%
LTK
  KINOMEscan LTK: 18
